Laboratory results: US10729770B2, “Bacterial influence on regulation of appetite via ClpB protein mimicry of alpha-MSH” (priority 2013, dated 2020)

How the values were obtained:
[1] = biological target: T1, α-MSH (Homo sapiens, UniProt P01189); assay: Affinity kinetics assay (surface plasmon resonance, BIAcore) of mouse IgG for α-MSH; assay type: binding; conditions: ClpB-immunized mice compared with controls
T1 construct: endogenous peptide hormone of the melanocortin family, with a tridecapeptide structure; purchased Bachem AG
Experimental: (§2) IgG purification and affinity assay were performed according to a published protocol (Legrand et al., Protoc Exch 2014, doi:10.1038/protex2014.004). Extraction of plasma globulins was done by plasma acidification and separation on C18 SEP column (Phoenix Pharmaceuticals, Burlingame, Calif., USA), then 500 μl of mouse plasma was mixed with 500 μl of buffer A (1% trifluoroacetic acid in water). The column was activated in 1 ml of buffer B (60% acetonitrile in 1% trifluoroacetic acid) by 3 min centrifugation with 700 r.p.m. and rinsed three times with 3 ml of buffer A. Diluted plasma (1:1 in buffer A) was added to the column and the effluent (1 ml) was saved (frozen at −20° C.) for further purification of IgG. Total IgG were purified from the effluents of mouse plasma samples using the Melon Gel Kit (Thermo Fisher Scientific, Rockford, Ill., USA). Plasma effluents diluted 1:4 in kit's purification buffer was added on washed melon gel deposited in a column. Column was spun 1 min at 6000 r.p.m., and the IgG containing effluent was saved and frozen at −20° C. before lyophilization. […]
(§3) Between injections of each sample, the binding surface was regenerated with 10 mM NaOH, resulting in the same baseline level of the sensorgram. The affinity kinetic data were analyzed using BiaEvaluation 4.1.1 program (GE Healthcare). […]

[2] = Locomotor activity and anxiety tests (open field, elevated O-maze) in immunized mice; assay type: in vivo
Experimental: After the feeding study, mice were placed in individual mouse-holding cages with food and water available ad libitum, and were analyzed for locomotor activity and anxiety in 0-maze (Med Associate, Inc., St Albans, Vt., USA) tests performed during 2 consecutive days. Two hours after the 0-maze test, mice were killed by decapitation in a guillotine and trunk blood was collected into EDTA-containing tubes. Plasma was separated by centrifugation at 3500 r.p.m. ([…]) for 10 min at 4° C. and stored at −80° C. before assay.
After feeding study in the BioDAQ cages, mice were analyzed for locomotor activity using a Versamax Animal Activity Monitor (AccuScan Instruments, Inc., Columbus, Ohio, USA). Next day after the locomotor activity test, all mice were tested for their anxiety in an elevated O-maze. The elevated-O-maze is a variation of more commonly used elevated plusmaze pharmacologically validated for anxiety testing in rodents. The advantage of the O-maze is that it lacks the ambiguous central square of the traditional plus-maze. The O-maze consisted of a circular infrared platform (outer diameter 120 cm) elevated 80 cm above the floor, featuring two open and two closed segments made of gray plastic. The closed segments were enclosed by walls extending 20 cm above the surface of the maze and covered with a black infrared plexiglas lid. Each test started by placing the mouse into one of the two closed segments. The test lasted 5 min and was recorded using a video camera placed above the O-maze and the EthoVision video tracking software (Noldus IT, Wageningen, The Netherlands). Measurements of distance and time spent in the open and closed segments were analyzed. Between each mouse tests, the 0-maze was cleaned with 30% ethanol.

[3] = biological target: T2, adrenocorticotropic hormone (Homo sapiens, UniProt P01189); assay: ELISA of plasma IgG reacting with adrenocorticotropic hormone; assay type: in vivo; conditions: ClpB immunization study
T2 construct: purchased Bachem AG
T2 sequence (P01189 138-176 limits assumed): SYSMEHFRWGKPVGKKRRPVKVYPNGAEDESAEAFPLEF
Source text: (§1) Each determination was done in duplicate.

[4] = ClpB immunization in mice: body weight, food intake and feeding pattern (BioDAQ cages); assay type: in vivo
Experimental: All experimental protocols were conducted according to US National Institutes of Health guidelines and EU directives, and animal experiments were approved by the Institutional Ethical Committees. Two-month-old male C57BI6 mice (Janvier Laboratories, L'Arbresle, France) were acclimated to the animal facility for 1 week with 12 h light-dark cycle, lights on at 0700 hours and were kept in standard mouse-holding cages (n=8) each. Mice were fed ad libitum with standard pelleted rodent chow (RM1 diet, SDS, UK) with drinking water always available and were manipulated daily by gentle holding and measuring body weight. During acclimatization, mice were distributed between four cages to obtain the similar mean body weight per mouse per cage. After 1 week of acclimatization, mice from each cage were assigned to one of four study group and received following treatments: (i) Group 1, ClpB immunization (n=8): ClpB protein (Delphi Genetics, Gosselies, Belgium) 50 μg per mouse in 200 μl of 1:1 (vol:vol) of PBS with Complete Freund's Adjuvant (Sigma, St Louis, Mo., USA), intraperitoneally (i.p.); (ii) Group 2, adjuvant injection controls (n=8): 200 μl of Complete Freund's Adjuvant in PBS (1:1 (vol:vol), i.p.); (iii) Group 3, PBS injection controls (n=8): 200 μl of PBS (i.p.); and (iv) Group 4, intact controls (n=8): received no injections, and then all mice were returned to their holding cages. Fifteen days later, mice were given a boost immunization and the following treatments: (i) Group 1 (n=8), ClpB protein (Delphi Genetics) 50 μg per mouse in 200 μl of 1:1 (vol:vol) of PBS with Incomplete Freund's Adjuvant (Sigma) i.p.; (ii) Group 2 (n=8): 200 μl of Incomplete Freund's Adjuvant in PBS (1:1 (vol:vol), i.p.); (iii) Group 3, (n=8): 200 μl of PBS (i.p.); and iv) Group 4, (n=8): received no injections. Next day after the boost, mice were placed individually into the BioDAQ mouse cages (Research Diets, Inc., New Brunswick, N.J., USA) each equipped with an automatic feeding monitor. Food (Serlab, Montataire France) and drinking water were available ad libitum and body weight was measured daily. After 3 days of acclimatization to the BioDAQ cages, mice received the following treatments: Groups 1, 2 and 3 (each n=8), that is, mice that have been immunized with ClpB, injected with adjuvants and with PBS, respectively, all received an acute injection of α-MSH peptide (Bachem AG), 100 μg·kg^−1 body weight in 100 μl of PBS (i.p.) at 1000 hours. The control mice (n=8) received PBS only (i.p.). Feeding data was continuously monitored and analyzed using the BioDAQ data viewer 2.3.07 (Research Diets). For the meal pattern analysis, the inter-meal interval was set at 300 s.

[5] = biological target: T3, ClpB protein (Escherichia coli, UniProt P63284); conditions: in vivo
T3 sequence (P63284 whole entry): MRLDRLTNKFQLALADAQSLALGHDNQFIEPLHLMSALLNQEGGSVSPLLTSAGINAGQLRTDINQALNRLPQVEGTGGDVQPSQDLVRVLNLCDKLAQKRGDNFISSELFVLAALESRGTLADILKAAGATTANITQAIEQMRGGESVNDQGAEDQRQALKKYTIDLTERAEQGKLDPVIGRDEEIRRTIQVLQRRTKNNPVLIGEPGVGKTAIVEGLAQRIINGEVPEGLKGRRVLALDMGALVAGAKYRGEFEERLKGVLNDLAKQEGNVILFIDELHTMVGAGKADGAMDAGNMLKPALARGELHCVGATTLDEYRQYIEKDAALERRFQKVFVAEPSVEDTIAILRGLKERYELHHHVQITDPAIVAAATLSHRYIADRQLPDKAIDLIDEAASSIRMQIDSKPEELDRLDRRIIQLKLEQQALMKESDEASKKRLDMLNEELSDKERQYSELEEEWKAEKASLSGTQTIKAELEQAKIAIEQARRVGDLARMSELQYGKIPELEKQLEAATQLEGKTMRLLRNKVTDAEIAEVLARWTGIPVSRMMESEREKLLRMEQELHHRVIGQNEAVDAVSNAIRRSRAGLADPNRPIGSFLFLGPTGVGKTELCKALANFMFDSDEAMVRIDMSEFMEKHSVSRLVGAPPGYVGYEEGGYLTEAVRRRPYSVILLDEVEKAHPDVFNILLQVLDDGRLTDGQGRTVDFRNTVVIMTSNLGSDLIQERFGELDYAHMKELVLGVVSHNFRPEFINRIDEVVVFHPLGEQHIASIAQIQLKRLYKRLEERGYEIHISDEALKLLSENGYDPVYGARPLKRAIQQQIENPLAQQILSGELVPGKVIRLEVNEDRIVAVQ
Experimental: Plates were washed (5 min for three times) in PBS with 0.05% Tween 200, pH 7.4, and then incubated overnight at 4° C. with 100 μl of mouse plasma diluted 1:200 in PBS to determine free auto-Ab levels or diluted 1:200 in dissociative 3M NaCl and 1.5M glycine buffer, pH 8.9, to determine total auto-Ab levels. The plates were washed (three times) and incubated with 100 μl of alkaline phosphatase (AP)-conjugated goat antimouse IgG (1:2000) or anti-mouse IgM (1:1000), all obtained from Jackson ImmunoResearch Laboratories, Inc. (West Grove, Pa., USA). Following washing (three times), 100 μl of p-nitrophenyl phosphate solution (Sigma) was added as AP substrate. After 40 min of incubation at room temperature, the reaction was stopped by adding 3 N NaOH. The optical density was determined at 405 nm using a microplate reader Metertech 960 (Metertech Inc., Taipei, Taiwan). Blank optical density values resulting from the reading of plates without addition of plasma samples were subtracted from the sample optical density values. Each determination was done in duplicate.
IgG and IgM antibodies reactive with ClpB were detected by enzyme-linked immunosorbent assay using corresponding anti-mouse or anti-human AP-conjugated antibodies (Jackson ImmunoResearch Laboratories, Inc.) as described above.

[6] = biological target: T1, α-MSH; assay: ELISA of plasma auto-antibodies reacting with α-MSH; assay type: in vivo
Source text: as §1

[7] = biological target: T3, ClpB protein; conditions: ClpB-immunized mice
Experimental: as §2, §3

[8] = tested on: anti-α-MSH IgG; conditions: 20 and 10 μg of ClpB
Experimental: Following 2D-PAGE, E. coli cytoplasmic proteins were transferred onto Hybond-ECL PVDF membrane (GE Healthcare) via a dry transfer method (Trans Blot Cell, Bio-Rad, USA) and a constant current of 0.8 mA.cm^−2 of the membrane size for 2 h. After transfer, membranes were blocked with 5% (wt:vol) milk (Regilait, France) in phosphate-buffered saline (PBS; 10 mmol·l^−1 […], and 150 mM·l^−1 NaCl) plus 0.05% (vol:vol) Tween 20.

[9] = open field, between study groups
[10] = ClpB-immunized mice, last 10 days
[11] = ClpB-immunized mice, α-MSH 100 μg/kg i.p.

What does the source list for “ClpB: chaperone protein ClpB from E. Coli K12, SEQ ID NO: 1, 857 amino acids; recombinant protein (Delphi Genetics) used for immunization”?
affinity of α-MSH-reactive IgG for α-MSH [1]: lower affinities; time spent in the closed arms of the O-maze ([2]; ClpB-immunized mice compared with all other groups): less time; distance moved in the closed arms of the O-maze ([2]; ClpB-immunized mice compared with controls): shorter distance; time spent in the open vs border areas [2, 9]: did not significantly differ; total locomotor activity [2, 9]: did not significantly differ; plasma adrenocorticotropic hormone-reactive IgG [3]: No significant differences; body weight for a few days after injections ([4]; ClpB 50 μg per mouse i.p. together with adjuvant, C57Bl6 mice): lower; body weight vs controls ([4]; ClpB-immunized mice, 4 weeks later): +5%; meal number [4, 10]: did not change; meal size [4, 10]: increased; mean daily food intake as compared with other groups ([4]; ClpB-immunized mice, last 10 days of the experiment): +13%; 24 h food intake following i.p. injection of α-MSH [4, 11]: not affected; body weight following i.p. injection of α-MSH [4, 11]: not affected; plasma anti-ClpB IgG levels [5]: strong increase; plasma levels of anti-ClpB IgG after adsorption with α-MSH [5]: significantly reduced; plasma levels of α-MSH IgM auto-Abs ([6]; ClpB immunization study, between the groups): did not significantly differ; plasma levels of α-MSH-reactive IgG ([6]; ClpB-immunized mice): Increased; affinity of anti-ClpB IgG [7]: lower affinities; Western blot revealed with anti-α-MSH IgG [8]: showed a 96-kDa band
